From patent US8697662B2, “Methods for treating Kaposi sarcoma” (PTC Therapeutics, Inc., priority 2009, dated 2014)
Marks after values point to notes of the source that are not given here.

Legend:
[1] = system: VEGF189 and VEGF206 isoforms; test: In-Cell Western and Western blot of matrix associated VEGF189/206 in HT1080 cells; format: cell-based, human; conditions: normoxic, 48 hours
Experimental: Experimental Design. HT1080 (human fibrosacoma) cell cultures were established under normoxic conditions (21% oxygen). HT1080 cells constitutively overproduce VEGF even under normoxic conditions. […] At the completion of treatment, the cells were washed and harvested. Cells were incubated with a primary antibody that recognizes the VEGF189 and VEGF206 isoforms. Infrared-dye labeled antibodies were applied secondarily, and the amounts of VEGF189 and VEGF206 were determined using the IN-CELL WESTERN® assay and ODYSSEY® infrared imaging system (Li-Cor, Lincoln, Nebr., USA); results are expressed as percentage inhibition relative to vehicle treated controls. Conventional Western blotting using the same primary antibody was also performed to confirm the presence of the matrix associated isoforms; for these experiments actin was used as a loading control. Actin is a ubiquitous housekeeping protein that is not known to be post transcriptionally regulated.

HT1080 xenografts = test: Intratumoral microvessel density (CD31 immunostain) and tumor VEGF in HT1080 xenografts; format: in vivo, athymic nude mice; conditions: 5 mg/kg BID oral (given as racemic mixture), 10 days
Experimental: Experimental Design. HT1080 cells (5×10^6 cells/mouse) were implanted subcutaneously in male athymic nude mice.
At the end of treatment, the mice were sacrificed. Excised tumors were assayed by ELISA for VEGF content as described in Section 9.1.1.1, and were sectioned and immunostained with an anti murine CD31 antibody that is specific for endothelial cells.

SY5Y xenografts = test: Tumor growth inhibition in subcutaneous SY5Y neuroblastoma xenografts; format: in vivo, athymic nude mice
Experimental: Experimental Design. SY5Y cells are derived from a human neuroblastoma, a childhood tumor arising in neural crest cells. SY5Y cells (1×10^7 cells/mouse) were implanted subcutaneously in male athymic nude mice.
Tumor size was measured by calipers at periodic intervals. When the average tumor size in a group exceeded 2000 mm^3, the mice in the group were sacrificed and excised tumors were assayed for intratumoral VEGF concentration as described in Section 9.1.1.1.

[2] = system: VEGF secreting cell lines; test: Cell cycle effects in several VEGF secreting human tumor cell lines (PI flow cytometry, Table 25); format: cell-based; conditions: all of the tested tumor types; 10 nM or 100 nM, 18 hours
Experimental: Experimental Design. Several VEGF secreting cell lines were assayed for cell cycle effects. […] At the completion of treatment, cells were harvested and cellular DNA content was analyzed via PI staining and flow cytometry (as described in Section 9.3.1.1).

HT1080 spheroids = test: 3-dimensional growth of HT1080 spheroids (DNA content, BrdU, morphology); format: cell-based, human
Experimental: Experimental Design. HT1080 cells grown as a monolayer were trypsinized and seeded onto a 0.75% agar noble base to prevent the cells from attaching to the bottom of the tissue culture plate and to allow/promote the cells to self-adhere and grow as 3-dimensional spheroids. […] The cells were incubated for 22 and 45 hours at 37° C., in the presence of a 10% CO2 atmosphere. Spheroids were visually checked daily for morphological changes and a medium was replenished two times per week. […] These pulse labeled spheroids were then harvested, washed and trypsinized (triple action solution, Gibco), pelleted and prepared for FACS analysis with a FITC BrdU Flow Kit, (BD Pharmingen). Cells were fixed and permeabilized with paraformadehyde and DNA stained with 7-AAD followed by incubation with an antibody which specifically recognizes […] incorporated into DNA. As described in Section 9.3.1.4. Cells were analyzed and sorted by 7-AAD signal (DNA content) to determine cell cycle phase, and BrdU content (percent actively synthesizing DNA).
Spheroids, prepared as above, were treated with either vehicle alone (0.5% DMSO v/v final) added to the media or a Compounds provided herein (10 nM or 50 nM final concentration) in media to which vehicle has been added.

HT1080 cells = test: Migration of cells out of re-plated HT1080 spheroids; format: cell-based, human
Experimental: Experimental Design. […] Pictures were then taken 48 hours to assess the migration and proliferation of the cells across the well's surface.

CYP1A2 = biological target: T1, CYP1A2 (Homo sapiens, UniProt P05177); test: CYP inhibition in human hepatic microsomes or recombinant isoenzymes: CYP1A2; format: in vitro ADME
T1 construct: host or cells: human hepatic microsomes or human recombinant isoenzymes
Description: It is possible that in certain clinical trial subjects, such agents may need to be adjusted for dosing or replaced by alternative agents that are not metabolized by CYP2D6, particularly when such agents may have a low therapeutic index.

[3] = system: Chinese hamster ovary (CHO) cells; test: Chromosome aberration study in CHO cells; format: cell-based; conditions: with and without exogenous metabolic activation
Experimental: Genotoxicity was assessed in a battery of in vitro and in vivo studies that included a bacterial reverse mutation study, a chromosome aberration study in Chinese hamster ovary (CHO) cells, and a micronucleus study in rats by the oral route. The in vitro studies were performed in the presence and absence of an exogenous metabolic activation system.

[4] = 28-day oral toxicity study in dogs with 15-day recovery
Experimental: The L23 vehicle was used. […] All studies in the toxicology program were conducted according to GLP regulations.

T1 sequence (P05177 whole entry): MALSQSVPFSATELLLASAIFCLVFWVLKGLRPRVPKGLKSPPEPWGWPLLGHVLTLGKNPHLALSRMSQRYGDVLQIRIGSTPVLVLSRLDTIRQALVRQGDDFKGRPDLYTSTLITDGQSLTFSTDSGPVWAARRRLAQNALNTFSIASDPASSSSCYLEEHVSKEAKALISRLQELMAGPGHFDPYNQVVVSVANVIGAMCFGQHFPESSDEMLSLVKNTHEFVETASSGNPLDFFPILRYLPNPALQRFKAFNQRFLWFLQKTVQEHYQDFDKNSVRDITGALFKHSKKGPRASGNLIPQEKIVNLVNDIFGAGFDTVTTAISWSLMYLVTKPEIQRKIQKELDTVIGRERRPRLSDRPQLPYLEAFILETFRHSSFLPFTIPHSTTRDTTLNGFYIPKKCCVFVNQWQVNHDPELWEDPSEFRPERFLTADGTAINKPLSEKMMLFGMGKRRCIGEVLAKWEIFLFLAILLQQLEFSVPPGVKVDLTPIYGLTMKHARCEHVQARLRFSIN

COc1ccc(C2c3[nH]c4ccc(Cl)cc4c3CCN2C(=O)Oc2ccc(Cl)cc2)cc1 (racemic) [Compound #10]
inhibition of matrix associated VEGF189 and VEGF206 isoforms (in words) [1]: potent concentration-dependent inhibition | tumor vessel count (CD31 immunostain) (HT1080 xenografts): unchanged | Mean % Inhibition of Intratumoral VEGF vs Vehicle at Sacrifice (SY5Y xenografts; 50 mg/kg QD, 250 mg/kg per week (Table 18), oral 5 days per week): 96* % | mean tumor size (in words) (SY5Y xenografts; through 15-days of dosing): essentially eliminated any increase in mean tumor size | cell cycle delay versus inhibition of VEGF production (in words) [2]: coincident with the inhibition of VEGF production | percentage of cells that incorporated BrdU (cells in S-phase) (in words) (HT1080 spheroids; HT1080 spheroids, 24 or 48 hours): not significantly altered | spheroid morphology (in words) (HT1080 spheroids; maintained in the presence of compound for three weeks, data not shown): no obvious morphological changes | cell cycle distribution of HT1080 spheroids (in words) (HT1080 spheroids; treated for 24 hours): not affected | cell cycle distribution of HT1080 spheroids (in words) (HT1080 spheroids; treated for 48 hours): not affected | migration of cells out of the spheroid (in words) (HT1080 cells; control spheroids re-plated in the presence of 50 nM): blocked in their ability to migrate out of the spheroid | proliferative and migratory capacity after exposure (in words) (HT1080 cells; three-week exposure at 50 nM, re-plated in the absence of the compound): does not reduce either the proliferative or the migratory capacity | inhibition of CYP1A2 (in words) (CYP1A2): No meaningful inhibition | genotoxic effects [3]: no evidence of genotoxic effects | dose at which maximal exposures occurred ([4]; dogs, 5, 15, and 30 mg/kg/dose BID, 28 days): 30 mg/kg/dose BID | clinical tolerability ([4]; dogs, low- and mid-dose levels (5, 15 mg/kg/dose BID), 28 days): clinically well tolerated | NOAEL for 28-days ([4]; dogs, oral capsules): 15 mg/kg/dose BID
